Reference: ChEMBL document CHEMBL4257522, “Synthesis and preliminary anti-inflammatory and anti-bacterial evaluation of some diflunisal aza-analogs” (Medchemcomm, 2018)
The source made the active and inactive calls. The rule behind the calls is not given here.

Assays:
[1] = tested on: Macrophage cell line; assay: Cytotoxicity against human PBMC-differentiated macrophages treated for 24 hrs followed by compound washout and measured after 48 hrs by MTT assay; type: cell-based
[2] = tested on: Klebsiella pneumoniae; assay: Potentiation of ciprofloxacin-induced antibacterial activity against Klebsiella pneumoniae ATCC 13883 assessed as minimum modulatory concentration up to 32 uM measured after 16 hrs in presence of MIC/4 ciprofloxacin; type: functional; details: ATCC 13883, 16 h, read-out: MEC
[3] = tested on: Streptococcus pyogenes; assay: Potentiation of erythromycin-induced antibacterial activity against Streptococcus pyogenes ATCC 14289 assessed as minimum modulatory concentration up to 32 uM measured after 16 hrs in presence of MIC/4 erythromycin; type: functional; details: ATCC 14289, 16 h, read-out: MEC
[4] = tested on: Staphylococcus aureus; assay: Potentiation of erythromycin-induced antibacterial activity against Staphylococcus aureus ATCC 33592 assessed as minimum modulatory concentration up to 32 uM measured after 16 hrs in presence of MIC/4 erythromycin; type: functional; details: ATCC 33592, 16 h, read-out: MEC
[5] = tested on: Pseudomonas aeruginosa; assay: Potentiation of erythromycin-induced antibacterial activity against Pseudomonas aeruginosa ATCC BAA-2108 assessed as minimum modulatory concentration up to 32 uM measured after 16 hrs in presence of MIC/4 erythromycin; type: functional; details: ATCC BAA-2108, 16 h, read-out: MEC
[6] = tested on: Streptococcus pyogenes; assay: Potentiation of ciprofloxacin-induced antibacterial activity against Streptococcus pyogenes ATCC 14289 assessed as minimum modulatory concentration up to 32 uM measured after 16 hrs in presence of MIC/4 ciprofloxacin; type: functional; details: ATCC 14289, 16 h, read-out: MEC
[7] = tested on: Streptococcus pyogenes; assay: Potentiation of tetracycline-induced antibacterial activity against Streptococcus pyogenes ATCC 14289 assessed as minimum modulatory concentration up to 32 uM measured after 16 hrs in presence of MIC/4 tetracycline; type: functional; details: ATCC 14289, 16 h, read-out: MEC
[8] = tested on: Enterococcus faecium; assay: Toxicity in Enterococcus faecium ATCC 700221 up to 32 uM measured after 16 hrs; type: organism-based; details: in vitro
[9] = tested on: Macrophage cell line; assay: Antiinflammatory activity in human PBMC-differentiated macrophages assessed as inhibition of LPS-induced prostaglandin production at 0.01 to 10 uM measured after 24 hrs by ELISA; type: functional, cell-based
[10] = tested on: Streptococcus pyogenes; assay: Potentiation of geneticin-induced antibacterial activity against Streptococcus pyogenes ATCC 14289 assessed as minimum modulatory concentration up to 32 uM measured after 16 hrs in presence of MIC/4 geneticin; type: functional; details: ATCC 14289, 16 h, read-out: MEC
[11] = tested on: Escherichia coli; assay: Potentiation of erythromycin-induced antibacterial activity against Escherichia coli ATCC 43894 assessed as minimum modulatory concentration up to 32 uM measured after 16 hrs in presence of MIC/4 erythromycin; type: functional; details: ATCC 43894, 16 h, read-out: MEC
[12] = tested on: Escherichia coli; assay: Potentiation of tetracycline-induced antibacterial activity against Escherichia coli ATCC 43894 assessed as minimum modulatory concentration up to 32 uM measured after 16 hrs in presence of MIC/4 tetracycline; type: functional; details: ATCC 43894, 16 h, read-out: MEC
[13] = tested on: Escherichia coli; assay: Potentiation of ciprofloxacin-induced antibacterial activity against Escherichia coli ATCC 43894 assessed as minimum modulatory concentration up to 32 uM measured after 16 hrs in presence of MIC/4 ciprofloxacin; type: functional; details: ATCC 43894, 16 h, read-out: MEC
[14] = tested on: Macrophage cell line; assay: Induction of prostaglandin production in human PBMC-differentiated macrophages after 24 hrs by ELISA; type: cell-based
[15] = tested on: Staphylococcus aureus; assay: Potentiation of ciprofloxacin-induced antibacterial activity against Staphylococcus aureus ATCC 33592 assessed as minimum modulatory concentration up to 32 uM measured after 16 hrs in presence of MIC/4 ciprofloxacin; type: functional; details: ATCC 33592, 16 h, read-out: MEC
[16] = tested on: Enterococcus faecium; assay: Potentiation of erythromycin-induced antibacterial activity against Enterococcus faecium ATCC 700221 assessed as minimum modulatory concentration up to 32 uM measured after 16 hrs in presence of MIC/4 erythromycin; type: functional; details: ATCC 700221, 16 h, read-out: MEC
[17] = tested on: Macrophage cell line; assay: Induction of IL-1beta production in human PBMC-differentiated macrophages after 24 hrs by ELISA; type: cell-based
[18] = tested on: Pseudomonas aeruginosa; assay: Potentiation of tetracycline-induced antibacterial activity against Pseudomonas aeruginosa ATCC BAA-2108 assessed as minimum modulatory concentration up to 32 uM measured after 16 hrs in presence of MIC/4 tetracycline; type: functional; details: ATCC BAA-2108, 16 h, read-out: MEC
[19] = tested on: Pseudomonas aeruginosa; assay: Potentiation of ciprofloxacin-induced antibacterial activity against Pseudomonas aeruginosa ATCC BAA-2108 assessed as minimum modulatory concentration up to 32 uM measured after 16 hrs in presence of MIC/4 ciprofloxacin; type: functional; details: ATCC BAA-2108, 16 h, read-out: MEC
[20] = tested on: Staphylococcus aureus; assay: Potentiation of geneticin-induced antibacterial activity against Staphylococcus aureus ATCC 33592 assessed as minimum modulatory concentration up to 32 uM measured after 16 hrs in presence of MIC/4 geneticin; type: functional; details: ATCC 33592, 16 h, read-out: MEC
[21] = tested on: Macrophage cell line; assay: Induction of IL-8 production in human PBMC-differentiated macrophages after 24 hrs by ELISA; type: cell-based
[22] = tested on: Escherichia coli; assay: Toxicity in Escherichia coli ATCC 43894 up to 32 uM measured after 16 hrs; type: organism-based
[23] = tested on: Staphylococcus aureus; assay: Potentiation of methicillin-induced antibacterial activity against Staphylococcus aureus ATCC 33592 assessed as minimum modulatory concentration up to 32 uM measured after 16 hrs in presence of MIC/4 methicillin; type: functional; details: ATCC 33592, 16 h, read-out: MEC
[24] = tested on: Staphylococcus aureus; assay: Toxicity in Staphylococcus aureus ATCC 33592 up to 32 uM measured after 16 hrs; type: organism-based
[25] = tested on: Enterococcus faecium; assay: Potentiation of tetracycline-induced antibacterial activity against Enterococcus faecium ATCC 700221 assessed as minimum modulatory concentration up to 32 uM measured after 16 hrs in presence of MIC/4 tetracycline; type: functional; details: ATCC 700221, 16 h, read-out: MEC
[26] = tested on: Staphylococcus aureus; assay: Potentiation of tetracycline-induced antibacterial activity against Staphylococcus aureus ATCC 33592 assessed as minimum modulatory concentration up to 32 uM measured after 16 hrs in presence of MIC/4 tetracycline; type: functional; details: ATCC 33592, 16 h, read-out: MEC
[27] = tested on: Enterococcus faecium; assay: Potentiation of geneticin-induced antibacterial activity against Enterococcus faecium ATCC 700221 assessed as minimum modulatory concentration up to 32 uM measured after 16 hrs in presence of MIC/4 geneticin; type: functional; details: ATCC 700221, 16 h, read-out: MEC
[28] = tested on: Streptococcus pyogenes; assay: Toxicity in Streptococcus pyogenes ATCC 14289 up to 32 uM measured after 16 hrs; type: organism-based
[29] = tested on: Klebsiella pneumoniae; assay: Potentiation of tetracycline-induced antibacterial activity against Klebsiella pneumoniae ATCC 13883 assessed as minimum modulatory concentration up to 32 uM measured after 16 hrs in presence of MIC/4 tetracycline; type: functional; details: ATCC 13883, 16 h, read-out: MEC
[30] = tested on: Klebsiella pneumoniae; assay: Potentiation of geneticin-induced antibacterial activity against Klebsiella pneumoniae ATCC 13883 assessed as minimum modulatory concentration up to 32 uM measured after 16 hrs in presence of MIC/4 geneticin; type: functional; details: ATCC 13883, 16 h, read-out: MEC
[31] = tested on: Pseudomonas aeruginosa; assay: Potentiation of methicillin-induced antibacterial activity against Pseudomonas aeruginosa ATCC BAA-2108 assessed as minimum modulatory concentration up to 32 uM measured after 16 hrs in presence of MIC/4 methicillin; type: functional; details: ATCC BAA-2108, 16 h, read-out: MEC
[32] = tested on: Klebsiella pneumoniae; assay: Toxicity in Klebsiella pneumoniae ATCC 13883 up to 32 uM measured after 16 hrs; type: organism-based
[33] = tested on: Enterococcus faecium; assay: Potentiation of methicillin-induced antibacterial activity against Enterococcus faecium ATCC 700221 assessed as minimum modulatory concentration up to 32 uM measured after 16 hrs in presence of MIC/4 methicillin; type: functional; details: ATCC 700221, 16 h, read-out: MEC
[34] = tested on: Streptococcus pyogenes; assay: Potentiation of methicillin-induced antibacterial activity against Streptococcus pyogenes ATCC 14289 assessed as minimum modulatory concentration up to 32 uM measured after 16 hrs in presence of MIC/4 methicillin; type: functional; details: ATCC 14289, 16 h, read-out: MEC

Compound | IC50 [1] | minimal effective concentration [2] | minimal effective concentration [3] | minimal effective concentration [4] | minimal effective concentration [5] | minimal effective concentration [6] | minimal effective concentration [7] | Activity [8] | minimal effective concentration [10] | minimal effective concentration [11] | minimal effective concentration [12] | minimal effective concentration [13] | Activity [14] | minimal effective concentration [15] | minimal effective concentration [16] | Activity [17] | minimal effective concentration [18] | minimal effective concentration [19] | minimal effective concentration [20] | Activity [21] | further results
O=C(O)c1cc(O)c(-c2ccccc2)nc1-c1ccccc1 | 92.1 µM | > 32 µM | 8 µM | 8 µM | 8 µM | > 32 µM | 4 µM | Non-Toxic | 2 µM | > 32 µM | > 32 µM | > 32 µM | Non-Toxic | 16 µM | 2 µM | Non-Toxic | > 32 µM | 4 µM | 8 µM | Non-Toxic | inhibition [9]: inactive; Activity [22]: Non-Toxic; minimal effective concentration [23]: 4 µM; Activity [24]: Non-Toxic; minimal effective concentration [25]: 2 µM; minimal effective concentration [26]: 8 µM; minimal effective concentration [27]: 4 µM; Activity [28]: Non-Toxic; minimal effective concentration [29]: > 32 µM; minimal effective concentration [30]: > 32 µM; minimal effective concentration [31]: 16 µM; Activity [32]: Non-Toxic; minimal effective concentration [33]: 1 µM; minimal effective concentration [34]: 1 µM
O=C(O)c1cc(-c2ccccc2)ncc1O | 84.5 µM | > 32 µM | > 32 µM | > 32 µM | > 32 µM | > 32 µM | > 32 µM | Non-Toxic | 16 µM | > 32 µM | > 32 µM | > 32 µM | Non-Toxic | 16 µM | > 32 µM | Non-Toxic | > 32 µM | > 32 µM | > 32 µM | Non-Toxic | inhibition [9]: inactive; Activity [22]: Non-Toxic; minimal effective concentration [23]: 16 µM; Activity [24]: Non-Toxic; minimal effective concentration [25]: > 32 µM; minimal effective concentration [26]: > 32 µM; minimal effective concentration [27]: > 32 µM; Activity [28]: Non-Toxic; minimal effective concentration [29]: > 32 µM; minimal effective concentration [30]: > 32 µM; minimal effective concentration [31]: > 32 µM; Activity [32]: Non-Toxic; minimal effective concentration [33]: > 32 µM; minimal effective concentration [34]: 16 µM
O=C(O)c1cc(-c2ccccc2)nc(-c2ccccc2)c1O | 81.2 µM | > 32 µM | 4 µM | 2 µM | 8 µM | > 32 µM | 8 µM | Non-Toxic | 4 µM | > 32 µM | > 32 µM | > 32 µM | Non-Toxic | 16 µM | 2 µM | Non-Toxic | > 32 µM | 8 µM | 8 µM | Non-Toxic | Activity [22]: Non-Toxic; minimal effective concentration [23]: 4 µM; Activity [24]: Non-Toxic; minimal effective concentration [25]: 2 µM; minimal effective concentration [26]: 2 µM; minimal effective concentration [27]: 8 µM; Activity [28]: Non-Toxic; minimal effective concentration [29]: > 32 µM; minimal effective concentration [30]: > 32 µM; minimal effective concentration [31]: 8 µM; Activity [32]: Non-Toxic; minimal effective concentration [33]: 2 µM; minimal effective concentration [34]: 2 µM
